Experimental data from patent publication US10105326B2, “Pharmaceutical solution comprising dopamine for use in treating parkinson's disease” (CENTRE HOSPITALIER REGIONAL ET UNIVERSITAIRE DE LILLE (CHRU), priority 2014, dated 2018).

Assays:
Type in all cases: in vivo
[1] = system: MPTP mice; assay: Spontaneous motor activity (actimetry) in MPTP mice; conditions: for spontaneous locomotor activity: 7 days
Method: (§1) Five-month-old male C57B1/6J mice (Elevage Janvier, Le Genest St Isle, France) weighing 28-30 g were used. The mice received four intraperitoneal injections (with 2 h intervals) of saline solution containing 0 (“Saline mice”) or 20 mg/kg of MPTP (“MPTP mice”) (Sigma Aldrich, St Louis, Mo. USA). Saline or MPTP were administrated at day 0 (D0), the central continuous dopamine infusion or peripheral L-dopa treatment were delivered from 7th to the 14th day (D7 to D14), and then spontaneous locomotor measurement and sacrifice were performed at D14.
After 7 days of treatment (i.p. L-dopa or i.c.v dopamine), spontaneous motor activity was recorded in an actimeter (Panlab, Barcelona, Spain) during 10 minutes. The apparatus was a 45×45×35 cm transparent Plexiglas enclosure equipped with two frames of infrared beams. This apparatus allowed horizontal motor activity (distance traveled, speed, movement type) and rearing behavior to be measured based on infrared beams obstructions. Chosen parameters were collected by Actitrack software (Panlab, Barcelona, Spain).

[2] = system: striatum of MPTP mice; assay: Neurotransmitter content in striatum of MPTP mice (HPLC)
Method: as §1

[3] = system: TH-ir neurons in SNpc; assay: TH-ir neurons counting in SNpc of MPTP mice
Method: as §1
The brains were removed and, after a post-fixation process, were cryoprotected and frozen. […]
The number of TH-ir neurons (“Tyrosine Hydroxylase-Immunoreactive») in the SNpc was assessed by counting TH-ir neurons of the left and right hemisphere in every 4th section of the SNpc of all experimental groups. […] For the unbiased quantification, a line was drawn around the SNpc of each section. […] Cells were counted with a 40× using a Nikon Eclipse E600 microscope (Tokyo, Japan). […] As no difference between left and right SNps was found, TH-ir counted neurons of both sides were pooled and for each animal, a sum of neurons counted in each section was calculated. […]

[4] = system: TH-ir terminals in dorsal striatum; assay: TH-ir optical density in dorsal striatum of MPTP mice; conditions: MPTP administration
[5] = peripheral L-dopa 50 and 100 mg/day

abnormal behaviors ([1]; high doses of L-Dopa) | Structure (SMILES) | spontaneous locomotor activity ([1]; peripheral L-dopa 50 mg/kg/day) | spontaneous locomotor activity ([1]; peripheral L-dopa 25 and 100 mg/day) | dopaminergic neurotransmission in striatum ([2]; peripheral L-dopa 25 mg/day) | serotonin and noradrenalin in both striatum ([2]; peripheral L-dopa 25 mg/day) | dopamine and metabolites in both striatum [2, 5] | serotonin and noradrenalin content [2, 5] | effect on TH-ir neurons in SNpc ([3]; L-dopa treatment, 7 days) | reduction in DOPAC content in each striatum ([2]; MPTP intoxication) | reduction in HIA content in each striatum ([2]; MPTP intoxication) | reduction in HVA content in each striatum ([2]; MPTP intoxication) | reduction in noradrenalin content in each striatum ([2]; MPTP intoxication) | reduction in serotonin content in each striatum ([2]; MPTP intoxication) | reduction in dopamine content in each striatum ([2]; MPTP intoxication, 4 x 20 mg/kg i.p.) | loss of TH-expressing neurons in the SNpc compared to saline-injected mice ([3]; MPTP administration) [%] | loss of TH-expressing neurons in the striatum compared to saline-injected mice [4] [%]
abnormal behaviors such as dyskinesia | N[C@@H](Cc1ccc(O)c(O)c1)C(=O)O [L-dopa, L-3,4-dihydroxyphenylalanine] | restored | no effect | no effect on dopaminergic neurotransmission | increase in serotonin and noradrenalin in both striatum | significant increase in dopamine and metabolites in both striatum | no supplemental effect on serotonin and noradrenalin content | no significant effect | – | – | – | – | – | – | – | –
– | CN1CC=C(c2ccccc2)CC1 [MPTP, 1-methyl-4-phenyl-1,2,3,6-tetrahydropyridine] | – | – | – | – | – | – | – | 70-80% | 20-50% | 60-70% | 35-50% | 40-40% | 85-90% | 44.3 | 38.2
